Data on five compounds can be found in US6106858A, “Modulation of drug loading in multivescular liposomes” (SkyePharma, Inc., priority 1997, dated 2000).

The nature of series [1]: Percent encapsulation (percent yield) of drug in final MVL suspension. The class given is physicochemical.
The nature of series [2]: Drug loading of multivesicular liposomes (MVL): drug concentration of suspension relative to lipocrit. The series is classed as physicochemical.
The conditions of series [3]: cited from earlier work.
The subject of series [4] is MG-63 human osteosarcoma cell line. Briefly: Mitogenic bioassay of extracted IGF-I with MTT stain. The class given is cell-based. The note with it: mitogenic response of quiescent MG-63 cells, versus unencapsulated standard. An excerpt:
(§1) The physicochemical integrity of the encapsulated IGF-I was confirmed by SDS-PAGE assay using Novex NuPage gel as well as by RP-HPLC assay using a C18 symmetric column. The encapsulated protein was extracted using 75:25 IPA:2N Citric Acid. The bioactivity of the encapsulated IGF-I was confirmed by a mitogenic bioassay using MG-63 human osteosarcoma cell line and 3-(4,5-dimethylthiazol-2-yl)-2,5-diphenyltetrazolium bromide (MTT) stain according to the method of W. Lopaczynski et al., Regulatory Peptides, 48:207-216, 1993. The MG-63 cells were obtained from the American Type Culture Collection (ATCC# CRL 1427), and the dose dependent mitogenic response of quiescent MG-63 cells to added IGF-I was determined.

Series [5] is described as follows: Lipocrit of MVL suspension. The class given is physicochemical. The note with it: 125 mL scale, first aqueous: 15 mg/mL, 20 mM ammonium citrate. The procedure: As used herein, "lipocrit," which is defined in analogy to hematocrit, means the ratio of the volume occupied by the liposomes to the total suspension volume multiplied by 100. [formula]
Thus, percent yield of drug was calculated as the ratio of the drug concentration in the final suspension times the volume of the final suspension to the drug concentration in the first aqueous solution times the volume of the first aqueous solution. Lipocrit was calculated, in analogy to hematocrit, as the percent ratio of the pellet volume to the suspension volume (see conditions below for obtaining the pellet volume).
To calculate the lipocrit about 50 μL of the multivesicular liposome suspension was taken up into a capillary tube, and end of the tube was sealed while ensuring that the suspension contained no air bubbles. The suspension was spun in a centrifuge at 600×g for 10 minutes to obtain a pellet layer and a supernatant layer. The percent ratio of the length of the tube occupied by the pellet to that occupied by the suspension gives the lipocrit.

A short description of series [6]: Integrity of encapsulated IGF-I by SDS-PAGE and RP-HPLC / characterization of encapsulated protein. The series is classed as physicochemical.
Text: as §1

Series [7] in a line: Percent free drug in MVL suspension. The note with it: 125 mL scale, first aqueous: 15 mg/mL, 8.0 w/v % sucrose, 20 mM ammonium citrate, ~321 mOsm.
Experimental: As used herein, "percent free drug" means the ratio of the amount of drug exterior to the liposomes in the final liposome suspension to the total amount of drug in the final suspension (the final product) multiplied by 100. [formula]
125 mL of first aqueous solution was mixed with 125 mL of the lipid component using a high-shear double-mixing vessel system to obtain the first emulsion. […] The aqueous and organic components were mixed at a speed of 8000 rpm for 30 minutes in the first emulsion vessel. […]
Percent free drug was calculated as the percent ratio of the amount of drug in the supernatant to the amount of drug in the final suspension. Percent free drug can also be calculated as the percent ratio of the drug concentration in the supernatant to that in the suspension, times (1-lipocrit) Drug loading, which measures the amount of drug encapsulated in each unit of the encapsulated volume, is approximately equal to and can be estimated (assuming low percent free drug) as the ratio of the drug concentration of the final liposome suspension to the lipocrit. […]
Using a reference absorbance standard established based on drug solutions of known concentration in the same dissolving solution, the concentrations of drug in the suspension and supernatant were calculated.
Series [8] is described as follows: Solubility of IGF-I versus pH. The series is classed as physicochemical. The procedure:
Further studies were conducted using in the first aqueous component concentrations of IGF-I ranging from 10 to 80 mg/mL, either with or without 100 mM HCl or 25 mM citric acid at constant pH. […] Studies have shown that up to about 300 mg/mL of IGF-I is soluble at a pH below 5.

The conditions of series [9]: prior-art multivesicular liposomes; cited from earlier work.
For series [10] the following is noted: prior-art multivesicular liposomes; cited from earlier work. The source holds these as a separate data set.

Several values for one entry are separate records, joined by “and”; a condition that tells them apart may be missing. Equal entries are not always repeated. Where two headings read alike, the source gives them in different places.

As for `CC(C)C[C@H](NC(=O)[C@H](Cc1ccccc1)NC(=O)CNC(=O)CNC(=O)[C@@H](N)Cc1ccc(O)cc1)C(=O)O` [Enkephalin, reference compound], in [1], the “% Yield” value is 77.5% and 71.8% and 72.5%. Further, the “effect of osmolarity of first aqueous solution on percent yield” value (“effect of osmolarity … on percent yield” below) in series [1] is “not significantly changed by a decrease in osmolarity”. Moreover, the “effect of osmolarity of first aqueous solution on drug loading” value in series [2] is on record as “decreasing of osmolarity resulting in increased drug loading”. For the same compound, the “Drug Loading” value in [2] (first aqueous: 5 mg/mL, 0.0 w/v % sucrose, 25 mM citric acid, est. 35.5 mOsm) is on record as 50.8 mg/mL; in series [2] (first aqueous: 5 mg/mL, 2.5 w/v % sucrose, 25 mM citric acid, est. 111.5 mOsm), 13.4 mg/mL; in series [2] (first aqueous: 5 mg/mL, 5.0 w/v % sucrose, 25 mM citric acid, est. 191.5 mOsm), 6.4 mg/mL.

For `CCNC(=O)[C@@H]1CCCN1C(=O)[C@H](CCCNC(=N)N)NC(=O)[C@H](CC(C)C)NC(=O)[C@@H](CC(C)C)NC(=O)[C@H](Cc1ccc(O)cc1)NC(=O)[C@H](CO)NC(=O)[C@H](Cc1c[nH]c2ccccc12)NC(=O)[C@H](Cc1c[nH]cn1)NC(=O)[C@@H]1CCC(=O)N1` [Leuprolide, reference compound], the “effect of osmolarity … on percent yield” value in [1] (MVL) was “A similar percent yield was maintained across the range of osmolarities tested”. Moreover, the “% Yield” value is listed as 54.1% in series [1] (MVL, first aqueous: 15 mg/mL, 4.0 w/v % sucrose, 100 mM phosphoric acid, est. 261.6 mOsm) and 56.2% in series [1] (MVL, first aqueous: 15 mg/mL, 6.0 w/v % sucrose, 100 mM phosphoric acid, est. 328.6 mOsm). For the same compound, in series [2], the “effect of osmolarity of first aqueous solution on drug loading” value was “decreasing of osmolarity resulting in increased drug loading”. In addition, the “Drug Loading” value in series [2] (first aqueous: 15 mg/mL, 4.0 w/v % sucrose, 100 mM phosphoric acid, est. 261.6 mOsm) stood at 17.9 mg/mL; in series [2] (first aqueous: 15 mg/mL, 6.0 w/v % sucrose, 100 mM phosphoric acid, est. 328.6 mOsm), 10.9 mg/mL.

As to `OC[C@H]1O[C@@](CO)(O[C@H]2O[C@H](CO)[C@@H](O)[C@H](O)[C@H]2O)[C@@H](O)[C@@H]1O` [sucrose], the Osmolarity for sucrose in series [3] (0.5 w/v %) is given as 15 mOsm; in [3] (1.0 w/v %) it was 30 mOsm; in series [3] (1.5 w/v %) it was 45 mOsm; in [3] (2.0 w/v %), 60 mOsm; in [3] (2.5 w/v %), 76 mOsm; in series [3] (3.0 w/v %), 91 mOsm. The Osmolarity for sucrose in [3] (4.0 w/v %) is listed as 123 mOsm; in series [3] (5.0 w/v %), 156 mOsm; in series [3] (6.0 w/v %) it was 190 mOsm; in series [3] (7.0 w/v %), 225 mOsm; in [3] (8.0 w/v %) it was 261 mOsm.

“IGF-I: insulin-like growth factor I (IGF-I), encapsulated in MVLs”: in series [4], the “bioactivity of extracted IGF-I” value was “approximately equivalent to that of an unencapsulated standard”. The “% Lipocrit” value in series [5] (5.0 w/v % sucrose, ~216 mOsm) worked out at 36.7%; in [5] (8.0 w/v % sucrose, ~321 mOsm) it was 41.8%. The “physicochemical integrity of encapsulated IGF-I” value in [6] (SDS-PAGE and RP-HPLC, extracted with 75:25 IPA:2N citric acid) was “confirmed”. Also, in series [6] (Table 6A formulations (100 mM HCl)), the “degradation of encapsulated protein” value is “showed some degradation”. Also, the “presence of IGF-I oligomers” value in [6] (absence of an acid buffer, Table 6B) is “increased presence of IGF-I oligomers in the absence of an acid buffer”. Besides, the “% Free IGF-I” value in [7] is 0.18%. The “solubility and bioavailability of encapsulated IGF-I versus pH” value in series [8] (10 to 80 mg/mL IGF-I, with or without 100 mM HCl or 25 mM citric acid) is “varied according to pH of the first aqueous component”. Besides, the solubility entry in [8] (pH below 5) is “about 300 mg/mL”.

Regarding cytosine arabinoside [Cytarabine], in series [9], the encapsulation efficiency result is given as “relatively low”. The “% Yield” value in [1] is 57.1% and 62.6% and 77.3% and 69.6%. Moreover, the “effect of osmolarity … on percent yield” value in [1] is recorded as “remaining relatively constant”. The “Drug Loading” value in [2] (first aqueous: 40 mg/mL, 0.0 w/v % sucrose, 20 mM citric acid, est. 185.9 mOsm) is on record as 61.7 mg/mL; in series [2] (first aqueous: 40 mg/mL, 2.0 w/v % sucrose, 20 mM citric acid, est. 245.9 mOsm) it was 45.2 mg/mL; in series [2] (first aqueous: 40 mg/mL, 5.0 w/v % sucrose, 20 mM citric acid, est. 341.9 mOsm), 30.8 mg/mL; in series [2] (first aqueous: 40 mg/mL, 8.0 w/v % sucrose, 20 mM citric acid, est. 446.9 mOsm) it was 21.0 mg/mL. Moreover, in [10], the “release rate of encapsulated molecules in biological fluids” value is “faster than is therapeutically desirable”.
